Data reported in patent publication US5328902A, “7-(substituted)-9-[(substituted glycyl)amido]-6-demethyl-6-deoxytetracyclines” (American Cyanamid Co., priority 1992, dated 1994).

Legend:
S. aureus ROSE (MP) = assay: MIC, agar dilution; format: cell-based; details: S. aureus ROSE (MP)
[1] = system: tetracycline sensitive and resistant Gram-positive and Gram-negative bacteria; assay: In vitro antibacterial activity, summary in words of Table I; format: cell-based; details: for in vitro activity against tetracycline resistant strains containing tetM and tetB resistance determinants: S. aureus UBMS 88-5, 90-1, 90-2, E. coli UBMS 89-1, 90-4, 88-1, TN10C tetB; for activity against recently isolated bacteria from clinical sources compared with minocycline: clinical isolates
E. coli J3272 Tet C = assay: microbe, parasite or virus in culture; format: cell-based; details: E. coli J3272 Tet C
[2] = system: S. hemolyticus AVHAH 88-3; assay: MIC, agar dilution; format: cell-based; details: S. hemolyticus AVHAH 88-3
[3] = system: Wild Type S30 (wild type ribosomes, E. coli strain MRE600, tetracycline sensitive); assay: E. coli in vitro protein translation system, wild type S30; details: for inhibition of protein synthesis occuring on wild type ribosomes: coupled transcription and translation system
S. aureus UBMS 88-4 = assay: MIC, agar dilution; format: cell-based; details: S. aureus UBMS 88-4
E. coli #311 (MP) = assay: MIC, agar dilution; format: cell-based; details: E. coli #311 (MP)
E. coli ATCC 25922 = assay: MIC, agar dilution; format: cell-based; details: E. coli ATCC 25922
E. coli J3272 Tet D = assay: microbe, parasite or virus in culture; format: cell-based; details: E. coli J3272 Tet D
S. aureus ATCC 29213 = assay: MIC, agar dilution; format: cell-based; details: S. aureus ATCC 29213
[4] = system: S. aureus UBMS 88-7 Tet K; assay: microbe, parasite or virus in culture; format: cell-based; details: S. aureus UBMS 88-7 Tet K
[5] = system: S. aureus UBMS 90-1 Tet M; assay: microbe, parasite or virus in culture; format: cell-based; details: S. aureus UBMS 90-1 Tet M
[6] = system: S. aureus UBMS 88-5 Tet M; assay: microbe, parasite or virus in culture; format: cell-based; details: S. aureus UBMS 88-5 Tet M
[7] = system: E. coli UBMS 89-2 Tet sens.; assay: MIC, agar dilution; format: cell-based; details: E. coli UBMS 89-2 Tet sens.
S. mariescens FPOR 8733 = assay: MIC, agar dilution; format: cell-based
E. coli UBMS 89-1 Tet M = assay: microbe, parasite or virus in culture; format: cell-based; details: E. coli UBMS 89-1 Tet M
S. aureus IVES 2943 = assay: MIC, agar dilution; format: cell-based; details: S. aureus IVES 2943
S. aureus UBMS 90-3 = assay: MIC, agar dilution; format: cell-based; details: S. aureus UBMS 90-3
Enterococcus 12201 = assay: MIC, agar dilution; format: cell-based; details: Enterococcus 12201
E. coli J3272 Tet sens. = assay: MIC, agar dilution; format: cell-based
[8] = system: E. coli MC 4100 TNIOC Tet B; assay: microbe, parasite or virus in culture; format: cell-based; details: E. coli MC 4100 TNIOC Tet B
E. coli UBMS 88-1 Tet B = assay: microbe, parasite or virus in culture; format: cell-based; details: E. coli UBMS 88-1 Tet B; 18 hours at 35° C.
E. coli PRP1 Tet A = assay: microbe, parasite or virus in culture; format: cell-based; details: E. coli PRP1 Tet A
[9] = system: Ps. acruginosa ATCC 27853; assay: MIC, agar dilution; format: cell-based; details: Ps. acruginosa ATCC 27853
E. coli UBMS 90-4 Tet M = assay: microbe, parasite or virus in culture; format: cell-based; details: E. coli UBMS 90-4 Tet M
E. coli BAJ9003 IMP MUT = assay: microbe, parasite or virus in culture; format: cell-based; details: E. coli BAJ9003 IMP MUT
E. coli UBMS 90-5 = assay: MIC, agar dilution; format: cell-based
the ribosome = assay: Reversibility of binding: bacterial growth resumes after washing; format: cell-based; details: bacterial growth resumes when the compound is removed from the cultures by washing
Source text: Therefore, the ability of these compounds to inhibit bacterial growth appears to be a direct consequence of its ability to inhibit protein synthesis at the ribosome level.

S. aureus IVES 1 983 = assay: MIC, agar dilution; format: cell-based; details: S. aureus IVES 1 983
S. aureus NEMC 8769 = assay: MIC, agar dilution; format: cell-based; details: S. aureus NEMC 8769
E. coli J2175 = assay: MIC, agar dilution; format: cell-based; details: E. coli J2175
S. aureus SMITH (MP) = assay: MIC, agar dilution; format: cell-based; details: S. aureus SMITH (MP)
[10] = system: S. aureus UBMS 90-2 Tet M; assay: microbe, parasite or virus in culture; format: cell-based; details: S. aureus UBMS 90-2 Tet M
[11] = system: Staphylococcus aureus strain Smith (tetracycline sensitive); assay: In vivo antibacterial evaluation, acute lethal infection in mice; details: animals infected with S. aureus Smith, 10080 min
E. faecalis ATCC 29212 = assay: MIC, agar dilution; format: cell-based; details: E. faecalis ATCC 29212

[4S-(4alpha,12aalpha)]-4,7-Bis(dimethylamino)-1,4,4a,5,5a,6,11,12a-octahydro-3,10, 12,12a-tetrahydroxy-1,11-dioxo-9-[[(2-propenylamino)acetyl]amino]-2-naphthacenecarboxamide dihydrochloride
MIC (S. aureus ROSE (MP)): 8 µg/mL
activity against E. coli tetA, E. coli tetC and E. coli tetD [1]: good activity
in vitro activity against tetracycline resistant strains containing tetM and tetB resistance determinants [1]: excellent
activity against recently isolated bacteria from clinical sources compared with minocycline [1]: superior to that of minocycline
activity against susceptible strains compared with minocycline [1]: equallyas effective as minocycline
MIC (E. coli J3272 Tet C): 1 µg/mL
MIC [2]: 0.5 µg/mL
% Inhibition Wild Type S30 ([3]; Conc. 0.06 mg/ml): 93%
% Inhibition Wild Type S30 ([3]; Conc. 1.0 mg/ml): 99%
inhibition of protein synthesis occuring on wild type ribosomes [3]: effectively inhibit protein synthesis
MIC (S. aureus UBMS 88-4): 0.25 µg/mL
MIC (E. coli #311 (MP)): 0.5 µg/mL
MIC (E. coli ATCC 25922): 0.5 µg/mL
MIC (E. coli J3272 Tet D): 0.25 µg/mL
MIC (S. aureus ATCC 29213): 0.25 µg/mL
MIC [4]: 8 µg/mL
MIC [5]: 0.5 µg/mL
MIC [6]: 0.25 µg/mL
MIC [7]: 0.5 µg/mL
MIC (S. mariescens FPOR 8733): 8 µg/mL
MIC (E. coli UBMS 89-1 Tet M): 0.5 µg/mL
MIC (S. aureus IVES 2943): 8 µg/mL
MIC (S. aureus UBMS 90-3): 0.25 µg/mL
MIC (Enterococcus 12201): 0.25 µg/mL
MIC (E. coli J3272 Tet sens.): 0.5 µg/mL
MIC [8]: 1 µg/mL
MIC (E. coli UBMS 88-1 Tet B): 1 µg/mL
MIC (E. coli PRP1 Tet A): 8 µg/mL
MIC [9]: 16 µg/mL
MIC (E. coli UBMS 90-4 Tet M): 0.5 µg/mL
MIC (E. coli BAJ9003 IMP MUT): 0.12 µg/mL
MIC (E. coli UBMS 90-5): 0.5 µg/mL
reversibility of binding to the ribosome (the ribosome): bind reversibly
MIC (S. aureus IVES 1 983): 8 µg/mL
MIC (S. aureus NEMC 8769): 0.12 µg/mL
MIC (E. coli J2175): 0.5 µg/mL

CC1CCN(CC(=O)Nc2cc(N(C)C)c3c(c2O)C(=O)C2=C(O)C4(O)C(=O)C(C(N)=O)=C(O)C(N(C)C)C4CC2C3)CC1.Cl.Cl (stereo not drawn) [G, [7S-(7alpha,10aalpha)]-N-[9-(Aminocarbonyl)4,7-bis(dimethylamino)-5,5a,6,6a,7,10,10a,12-octahydro-1,8,10a,ll-tetrahydroxy-10,12-dioxo-2-naphthacenyl]-4-methyl-l-piperidineacetamide dihydrochloride]
MIC (S. aureus ROSE (MP)): 1 µg/mL
activity against E. coli tetA, E. coli tetC and E. coli tetD [1]: good activity
in vitro activity against tetracycline resistant strains containing tetM and tetB resistance determinants [1]: excellent
activity against recently isolated bacteria from clinical sources compared with minocycline [1]: superior to that of minocycline
activity against susceptible strains compared with minocycline [1]: equallyas effective as minocycline
MIC [2]: 1 µg/mL
% Inhibition Wild Type S30 ([3]; Conc. 0.06 mg/ml): 90%
% Inhibition Wild Type S30 ([3]; Conc. 1.0 mg/ml): 99%
inhibition of protein synthesis occuring on wild type ribosomes [3]: effectively inhibit protein synthesis
MIC (S. aureus UBMS 88-4): 0.5 µg/mL
MIC (E. coli J3272 Tet D): 0.25 µg/mL
MIC [4]: 0.5 µg/mL
MIC [5]: 0.5 µg/mL
MIC [7]: 2 µg/mL
MIC (S. mariescens FPOR 8733): 16 µg/mL
MIC (E. coli UBMS 89-1 Tet M): 0.5 µg/mL
MIC (S. aureus IVES 2943): 0.5 µg/mL
MIC (S. aureus SMITH (MP)): 0.5 µg/mL
MIC (S. aureus UBMS 90-3): 0.5 µg/mL
MIC (E. coli J3272 Tet sens.): 1 µg/mL
MIC [8]: 2 µg/mL
MIC (E. coli UBMS 88-1 Tet B): 2 µg/mL
MIC (E. coli PRP1 Tet A): 2 µg/mL
MIC [10]: 0.5 µg/mL
MIC [9]: 32 µg/mL
MIC (E. coli UBMS 90-4 Tet M): 1 µg/mL
MIC (E. coli UBMS 90-5): 2 µg/mL
reversibility of binding to the ribosome (the ribosome): bind reversibly
ED50 ([11]; administered intravenously): 1 to 2 mg/kg
ED50 ([11]; given orally): 4 to 8 mg/kg
MIC (S. aureus IVES 1 983): 0.5 µg/mL

[4S-(4alpha,12aalpha)]-9-[[[(2,2-Diethoxyethyl)amino]acetyl]amino]-4,7-bis(dimethylamino)-1,4,4a,5,5a,6,11,12a-octahydro-3,10, 12,12a-tetrahydroxy-1,11-dioxo-2-naphthacenecarboxamide dihydrochloride [Compound C]
MIC (S. aureus ROSE (MP)): 16 µg/mL
MIC (E. coli J3272 Tet C): 16 µg/mL
MIC [2]: 2 µg/mL
% Inhibition Wild Type S30 ([3]; Conc. 0.06 mg/ml): 88%
% Inhibition Wild Type S30 ([3]; Conc. 1.0 mg/ml): 98%
inhibition of protein synthesis occuring on wild type ribosomes [3]: effectively inhibit protein synthesis
MIC (S. aureus UBMS 88-4): 1 µg/mL
MIC (E. coli #311 (MP)): 8 µg/mL
MIC (E. coli ATCC 25922): 8 µg/mL
MIC (E. coli J3272 Tet D): 4 µg/mL
MIC (S. aureus ATCC 29213): 1 µg/mL
MIC [4]: 8 µg/mL
MIC [5]: 1 µg/mL
MIC [6]: 1 µg/mL
MIC [7]: 8 µg/mL
MIC (S. mariescens FPOR 8733): > 32 µg/mL
MIC (E. coli UBMS 89-1 Tet M): 4 µg/mL
MIC (S. aureus IVES 2943): 8 µg/mL
MIC (S. aureus SMITH (MP)): 0.5 µg/mL
MIC (S. aureus UBMS 90-3): 0.5 µg/mL
MIC (Enterococcus 12201): 1 µg/mL
MIC (E. coli J3272 Tet sens.): 8 µg/mL
MIC [8]: 8 µg/mL
MIC (E. coli UBMS 88-1 Tet B): 16 µg/mL
MIC (E. faecalis ATCC 29212): 0.5 µg/mL
MIC (E. coli PRP1 Tet A): > 32 µg/mL
MIC [10]: 1 µg/mL
MIC [9]: > 32 µg/mL
MIC (E. coli UBMS 90-4 Tet M): 4 µg/mL
MIC (E. coli BAJ9003 IMP MUT): 0.5 µg/mL
MIC (E. coli UBMS 90-5): 8 µg/mL
reversibility of binding to the ribosome (the ribosome): bind reversibly
MIC (S. aureus IVES 1 983): 16 µg/mL
MIC (S. aureus NEMC 8769): 0.25 µg/mL
MIC (E. coli J2175): 8 µg/mL
